The source of these data is ChEMBL document CHEMBL4308917, “Tripeptide analogues of MG132 as protease inhibitors” (Bioorg Med Chem, 2019).

Residues, ends and D or L forms follow the SMILES beside them. *: point of attachment. Cbz = O=C(OCc1ccccc1)* Where only a bound is given, the exact number is not on record here.

Test [1] in a line: Inhibition of recombinant ovine lung calpain-1 protease using BODIPY-FL casein as substrate measured at 30 secs time interval for 30 mins by fluorescence-based assay. Details: species or system Ovis aries.
A short description of test [2]: Inhibition of recombinant ovine lung calpain-2 protease using BODIPY-FL casein as substrate measured at 30 secs time interval for 30 mins by fluorescence-based assay. Further details: species or system Ovis aries.
Test [3] concerns the target T1, Calpain-2 catalytic subunit (Sus scrofa, UniProt P43367).
T1 sequence (P43367 whole entry): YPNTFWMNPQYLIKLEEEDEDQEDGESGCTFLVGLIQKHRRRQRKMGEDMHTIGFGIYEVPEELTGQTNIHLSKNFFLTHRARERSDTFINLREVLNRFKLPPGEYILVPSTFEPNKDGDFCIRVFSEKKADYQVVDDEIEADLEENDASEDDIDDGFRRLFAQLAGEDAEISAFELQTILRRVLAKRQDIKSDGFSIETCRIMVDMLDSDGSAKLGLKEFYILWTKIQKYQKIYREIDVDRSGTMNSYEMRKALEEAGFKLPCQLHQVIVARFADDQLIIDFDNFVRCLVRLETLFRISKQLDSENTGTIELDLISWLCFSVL
In words: Inhibition of recombinant porcine calpain 2 protease using BODIPY-FL casein as substrate measured at 30 secs time interval for 30 mins by fluorescence-based assay.

Test [4] deals with T2, Proteasome Macropain subunit MB1 (Homo sapiens, UniProt P28074).
T2 sequence (P28074 whole entry): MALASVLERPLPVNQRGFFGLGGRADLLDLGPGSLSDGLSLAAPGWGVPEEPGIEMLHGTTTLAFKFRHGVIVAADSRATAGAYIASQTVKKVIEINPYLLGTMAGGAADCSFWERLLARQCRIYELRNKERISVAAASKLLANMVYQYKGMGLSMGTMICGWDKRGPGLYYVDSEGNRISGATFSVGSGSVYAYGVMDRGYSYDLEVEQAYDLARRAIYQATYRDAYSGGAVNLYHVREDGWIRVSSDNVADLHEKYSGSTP
In words: Inhibition of chymotrypsin like activity of 26S proteasome beta 5 subunit (unknown origin) by fluorescence assay.

Test [5] in a line: Selectivity ratio of IC50 for chymotrypsin like activity of 26S proteasome beta 5 subunit (unknown origin) to IC50 for recombinant ovine lung calpain 2 protease.
The target in test [6] is T3, Proteasome Macropain subunit MB1 (Homo sapiens) (UniProt P28074).
T3 sequence (whole entry): T2 sequence (P28074 whole entry)
The test can be described thus: Ratio of test compound IC50 to MG132 IC50 for chymotrypsin like activity of 26S proteasome beta 5 subunit (unknown origin) by fluorescence assay.

For a further test, the species on record is Ovis aries. The test can be described thus: Potency index, ratio of MG132 IC50 to test compound IC50 for recombinant ovine lung calpain-2 protease using BODIPY-FL casein as substrate measured at 30 secs time interval for 30 mins by fluorescence-based assay.
A further test relates to Plasmodium falciparum. In words: Antiplasmodial activity against Plasmodium falciparum D10 cultured in human O+ erythrocytes after 50 to 60 hrs by ethidium bromide staining-based flow cytometric analysis. Type of test: functional, organism-based. A general note: Flow cytometry measures light scatter and fluorescence of single cells or particles in a stream.
Test [7] in a line: Selectivity ratio of IC50 for chymotrypsin like activity of rabbit 20S proteasome beta 5 to IC50 for recombinant ovine lung calpain 2 protease.
The nature of test [8]: Inhibition of recombinant ovine lung calpain-2 protease using BODIPY-FL casein as substrate after 10 mins by fluorescence-based assay. Details: species or system Ovis aries.
The nature of test [9]: Inhibition of chymotrypsin like activity of rabbit 20S proteasome beta 5 subunit using Suc-LLVY-AMC as substrate preincubated for 15 mins followed by substrate addition and measured after 2 hrs by fluorescence assay. Further details: species or system Oryctolagus cuniculus.

Turning to `CC(C)C[C@@H](C=O)NC(=O)[C@H](CC(C)C)NC(=O)[C@H](Cc1ccccc1)NC(=O)OCc1ccccc1` (Cbz-Phe-Leu-Leu-aldehyde), the IC50 (usually the concentration needed to halve the response being measured) in test [1] was found to be 8 nM; in test [2] it was 11 nM; in test [3] it was 6 nM; in test [4] it was 139 nM; in the test on Plasmodium falciparum, 62 nM. Moreover, the Ratio IC50 in test [5] is 13; in test [6] it was 16 to 428; in the test listed under Ovis aries, above 3.
In the case of `CC(C)C[C@H](NC(=O)[C@H](Cc1ccccc1)NC(=O)OCc1ccccc1)C(=O)N[C@H](C=O)Cc1ccccc1` (Cbz-Phe-Leu-Phe-aldehyde), the half-maximal inhibitory concentration (IC50) was determined as 51 nM in test [1]; 6 nM in test [2]; 27 nM in test [3]; 514 nM in [4]; 191 nM with Plasmodium falciparum. Further, the Ratio IC50 is 86 in [5], 16 to 428 in test [6] and above 3 in the test filed under Ovis aries.
Regarding `C#CCOc1ccc(C[C@@H](C=O)NC(=O)[C@H](CC(C)C)NC(=O)[C@H](Cc2ccccc2)NC(=O)OCc2ccccc2)cc1`, the 50% inhibitory concentration (IC50) was determined as 81 nM in test [1]; 13 nM in test [2]; 34 nM in [3]; 189 nM in test [4]; 250 nM in the test with Plasmodium falciparum. The Ratio IC50 in test [5] was 14; in [6] it was 16 to 428; in the test listed under Ovis aries it was above 3.
For the compound `CC(C)C[C@H](NC(=O)OCc1ccccc1)C(=O)N[C@@H](CC(C)C)C(=O)N[C@@H](CC(C)C)C(=O)[C@@]1(C)CO1`, the half-maximal inhibitory concentration (IC50) was 9800 nM in test [1]; 4400 nM in [2]; 4200 nM in [3]; 220 nM in test [4]; 6130 nM in the test on Plasmodium falciparum. Further, the results for the Ratio IC50 in test [5] and in test [6] were 0.05 and 16 to 428, respectively.
As to `C#CCOc1ccc(C[C@@H](C=O)NC(=O)[C@@H](NC(=O)[C@H](CCCCN=[N+]=[N-])NC(=O)OCc2ccccc2)[C@@H](C)CC)cc1`, the Ratio IC50 in test [7] was 0.05; in [6], 16 to 428. Further, the concentration for half-maximal inhibition (IC50) is 390 nM in test [8], 20 nM in test [9] and 146 nM in the test on Plasmodium falciparum.
For `CC(C)C[C@@H](C=O)NC(=O)[C@H](CC(C)C)NC(=O)[C@H](CC(C)C)NC(=O)OCc1ccccc1` [MG-132] (Cbz-Leu-Leu-Leu-aldehyde), the IC50 in test [1] turned out to be 120 nM; in test [2], 311 nM; in the test on Plasmodium falciparum it was 35 nM.
Consider `CC(C)C[C@@H](C=O)NC(=O)[C@H](CO)NC(=O)[C@H](CC(C)C)NC(=O)OCc1ccccc1` (Cbz-Leu-Ser-Leu-aldehyde), for which the IC50 amounted to 40 nM in test [1]; 99 nM in test [2]; 160 nM in [3]; 269 nM in [4]; 213 nM with Plasmodium falciparum. Besides, the Ratio IC50 in test [5] was 2.7; in test [6] it was 16 to 428; in the test listed under Ovis aries it was above 3.
Turning to `C#CCOc1ccc(C[C@@H](C=O)NC(=O)[C@H](CC(C)C)NC(=O)[C@H](CCCCN=[N+]=[N-])NC(=O)OCc2ccccc2)cc1`, the results for the Ratio IC50 in test [7] and in [6] were 0.15 and 16 to 428, respectively. Also, the IC50 in [8] is 1030 nM; in [9] it was 150 nM; in the test with Plasmodium falciparum it was 561 nM.
